Measurements as given in patent US20240141375A1, “LENTIVIRUS FOR GENERATING CELLS EXPRESSING ANTI-CD19 CHIMERIC ANTIGEN RECEPTOR” (Umoja Biopharma, Inc., priority 2021, published 2024).

Legend:
Bead-activated PBMCs = experiment: Payload gene order: 2A detection, rapamycin enrichment and expansion of CAR-T cells; assay type: cell-based; settings: by day 22; 10 nM rapamycin
Procedure: The aim of this study was to determine the effect of order on the detectability and function of a lentiviral payload comprised of the following functional elements: Frb-RACR, and αCD19-CAR. The Frb-RACR element provides a selective advantage to cells when rapamycin is added to the culture. The αCD19-CAR element provides targeting of T cells to CD19+ target cells. The two elements together create CAR-T cells that enrich with rapamycin and are cytotoxic to CD19+ target cells. Two payload designs evaluated differ only in the order in which elements are expressed in the polycistronic transcript. This study tested functional aspects of the payloads in both orientations to see if differences in expression were affecting 1) payload detection by flow cytometry (2A antibody), 2) CAR-T cell rapamycin response, and 3) CAR-T cell CD19+ cell cytotoxicity.
Two payload designs evaluated: • 1. MND promoter—FRB-P2A-RACRβ-P2A-RACRγ-P2A-CAR (SEQ ID NO: 81) • 2. MND promoter—CAR-P2A-FRB-P2A-RACRβ-P2A-RACRγ (SEQ ID NO: 61)
Expansion of CAR-T cells was measured using cell counts, culture volume, and flow cytometry population frequencies to estimate total CAR-T cells. Gating requirements were different for d15 and 22; however, in each case, un-transduced cells were used as a biological negative control. […]

Nalm-6 GFP FFLUC cells = experiment: Nalm-6 systemic tumor model in PBMC-humanized mice; parameters: species or system MHC I/II KO NSG female mice; settings: mouse, in vivo
Procedure: The aim of this study is to evaluate the efficacy of UB-VV100 and the effects of rapamycin dosing after UB-VV100 administration in a Nalm-6 systemic tumor model in PBMC-humanized mice. The UB-VV100 Viral particles comprised SEQ ID NOs: 121, 128, 131, and 132.
Lentivirus was prepared using adherent production and tiered on 293T cells by flow cytometry. Nalm-6 GFP FFLUC cells expressing luciferase and GFP were obtained from the Jensen lab, SCRI, cultured by Umoja Biopharma, and delivered in PBS for injection.
24 MHC I/II KO NSG female mice were used in the study. On study day −5 (D-5) mice were implanted with 0.5 million Nalm-6 cells via retroorbital injection.
At study day −1 mice where humanized with 10 million PBMC via IP injection. The same day all mice were imaged with an IVIS imager 15 minutes after d-Luciferin injection (15 mg/kg) to detect Nalm-6 disease burden. All mice from each tumor group were randomized according to their tumor bioluminescence (Total Flux) levels into 4 cohorts according to the Table 8 below.
At study day 0 mice from groups 3 and 4 were treated IP with 20 million viral particles of UB-VV100 in 500 ul of PBS. […]
Percentage of body weight loss was monitored during the study (FIG. 34B). […] Bone marrow, spleen, peripheral blood and tumor were collected, processed into a single cell suspension, and analyzed by flow cytometry.

unstimulated human PBMCs = experiment: T cell activation (CD25) in PBMCs after vector addition, flow cytometry; assay type: cell-based; settings: 4 days after transduction; VT103 mCherry vectors 5 ul or 25 ul; Blinatumomab 1 ng/ml
Procedure: PBMCs were thawed, resuspended into 10 ml RPMI complete media, and the PBMCs were diluted to 1e6 cells/ml in complete RPMI media. IL-2 was added to a final concentration of 50U/ml. PBMCs were separated into 3× groups of 15 ml each for various stimulations: • Group #1—Blinatumomab added to a final concentration of 1 ng/ml • Group #2-15e6 αCD3/αCD28 Dynabeads added • Group #3—IL-2 only
For each group, 5 ml of stimulation solution was added to 3× wells of Non-TC treated 6 well plate and incubated at 37° C. for 48 hours. Beads were removed from applicable wells, cells were counted and pelleted. Cells were then resuspended in fresh complete RPMI media at 1e6 cells/ml with IL-2 at a final concentration of 50U/ml. 1 ml (1e6 cells) was added to the wells of a Non TC-treated 12 well plate. […]
After 4 days, cells were resuspended with 200 ul into wells in a 96 well V-bottom plate. […] Cells were resuspended in 50 ul of surface antibody cocktail (Anti-CD3-PerCP, Anti-CD19-FITC, Anti-CD56-APC, and Anti-CD25-BV421), incubated for 20 min at 4° C., washed in 200 ul FACS buffer, and resuspended in 100 ul FACS buffer and analyzed by flow cytometry. […]
(§1) Each group was incubated at 37° C. overnight. Beads were removed from applicable wells, cells were counted and pelleted. […]
as §1

## CO[C@H]1C[C@@H]2CC[C@@H](C)[C@@](O)(O2)C(=O)C(=O)N2CCCC[C@H]2C(=O)O[C@H]([C@H](C)C[C@@H]2CC[C@@H](O)[C@H](OC)C2)CC(=O)[C@H](C)/C=C(\C)[C@@H](O)[C@@H](OC)C(=O)[C@H](C)C[C@H](C)/C=C/C=C/C=C/1C [rapamycin]
Bead-activated PBMCs
  expansion of αCD19-CAR-T cells over non-rapamycin treated cells: 4.3 fold
Nalm-6 GFP FFLUC cells
  survival: ≤ 20 study day

## Blinatumomab: Bispecific T-cell engager with anti-CD3 moiety, used as PBMC stimulus
Unstimulated human PBMCs
  CD25 expression on T cells (activation): potently activated the T cells
